Experimental data: patent US20260083865A1, “PROSTATE SPECIFIC MEMBRANE ANTIGEN (PSMA) LIGANDS AND USE THEREOF” (priority 2022, published 2026)
Like-named read-outs stand apart in the source and are kept apart here. Numbered stars: 1 amine (or outer) side, 2 acyl side, 3 side chain; on linkers, the order of the positions; unused ones are H or OH. Bridge positions count the residues as written; N and C are the ends. Square brackets hold non-standard residues; d marks the D form. Peptide text beside a SMILES is read from it. * marks the point of attachment. DOTA = O=C(O)CN1CCN(CC(=O)O)CCN(CC(=O)*)CCN(CC(=O)O)CC1; Trp(6-Cl) = N[C@@H](Cc1c[nH]c2cc(Cl)ccc12)C(=O)O; Arg(NO2) = N=C(NCCC[C@H](N)C(=O)O)N[N+](=O)[O-]; Phe(4-Cl) = N[C@@H](Cc1ccc(Cl)cc1)C(=O)O; X1 = O=C(CC1CCN([*:1])CC1)[*:2]; Cit = NC(=O)NCCC[C@H](N)C(=O)O; Lys(Me) = CNCCCC[C@H](N)C(=O)O; Tle = CC(C)(C)[C@H](N)C(=O)O; Pyridin(2-yl) = c1ccc(*)nc1; 4Amb = NCc1ccc(C(=O)O)cc1; Orn = NCCC[C@H](N)C(=O)O; Aib = CC(C)(N)C(=O)O; CO = O=C([*:1])[*:2]; βAla = NCCC(=O)O; NHBu = CCCCN*

Key:
[1] = target: T1, PSMA-expressing C4-2 cells (Homo sapiens, UniProt Q04609); assay: FACS binding assay (competition with 50 nM PSM-0183); conditions: read-out: pIC50 [C4-2] CAT (converted)
T1 construct: PSMA-expressing C4-2 cells (ATCC, Cat. No. CRL-3314) were cultured in RPMI-1640; host or cells: C4-2 cells
Method: In order to determine binding of compounds according to the present invention to PSMA-expressing cells, a FACS binding assay was established.
PSMA-expressing C4-2 cells (ATCC, Cat. No. CRL-3314) were cultured in RPMI-1640 (Pan Biotech, Cat. No. P04-18050) including 10% fetal calf serum (Biochrom) and 100 U/ml penicillin and 100 μg/mL streptomycin (Sigma, Cat. No. P0781). Cells were detached with Accutase (Biolegend, Cat. No. BLD-423201) and washed in FACS buffer (PBS (Sigma, Cat. No. D8537) including 1% fetal calf serum). Cells were diluted in FACS buffer to a final concentration of 500,000 cells per mL. 200 μL of the cell suspension were transferred to a u-shaped non-binding 96-well plate (Greiner Bio-One, Cat. No. 650901) and cells were washed in ice-cold FACS buffer.
For IC50 determination, C4-2 cells were incubated with 50 nM PSM-0183 (Ac-Thr-Aib-Phe[Cys-Lys-Arg-Aib-Asn-Cys]-Tle-Thr-Asp-Ttds-Ttds-AF488N3K-NH2) in the presence of increasing concentrations of test compounds at 4° C. for 1 hour. After two wash steps with ice-cold FACS buffer, cells were analyzed in an Attune NxT flow cytometer. Median fluorescence intensities (MFI) of the FITC/AF488-channel were calculated by Attune NxT software. MFI values were plotted against peptide concentration and four parameter logistic (4PL) curve fitting and IC50/pIC50 calculations were performed using ActivityBase software (IDBS).

[2] = target: T2, Fc-fusion protein of human PSMA (hPSMA-Fc) (Homo sapiens, UniProt Q04609); assay: Surface plasmon resonance assay (Biacore T200, single cycle kinetic); assay type: binding; conditions: hPSMA-Fc, 25° C., read-out: pKD CAT (converted)
T2 construct: purchased Acro Biosystems PSA-H5264
Method: Surface plasmon resonance (SPR) studies were performed using a Biacore™ T200 SPR system. Briefly, polarized light is directed towards a gold-labeled sensor surface, and minimum intensity reflected light is detected. The angle of reflected light changes as molecules bind and dissociate.
Fc-fusion protein of human PSMA (hPSMA-Fc, Acro Biosystems, Cat #PSA-H5264) was captured on a Fc-capture chip (Biacore™ CM5 sensor chip coated with ˜300 RU of an Fc-binding peptide). hPSMA-Fc was diluted in Running Buffer (HBST, 0.1% DMSO) to a final concentration of 100 nM and then flushed over the Fc-capture chip to immobilized ˜1000 RUs.
Stock solutions of test compounds were prepared by dissolving each compound in DMSO. DMSO stock solution were diluted 1:1000 in Running Buffer without DMSO. Further sequential dilutions were made with Running Buffer containing 0.1% DMSO. SPR binding analyses were performed in Single Cycle Kinetic (SCK) mode at 25° C. Flow cell coated with the Fc-binding peptide only served as reference flowcell. After each SCK run, hPSMA-Fc was removed with 10 mM glycine buffer, pH 1.5.
In between every three SCK measurements, a blank run with Running Buffer instead of test compound was included to correct for baseline drifts (double blanking method).
Table 5 describes the protocol steps for Fc-fusion target capturing and assessment of the binding kinetics.
For each test compound, SPR raw data in the form of resonance units (RU) were plotted as sensorgrams using the Biacore™ T200 control software. The signal from the blank sensorgram was subtracted from that of the test compound sensorgram (blank corrected). The blank corrected sensorgram was corrected for baseline drift by subtracting the sensorgram of a SCK run without the test compound (running buffer only). The dissociation constant (KD) was calculated from Blank-normalized SPR data using the 1:1 Langmuir binding model from the Biacore™ Insight Evaluation software. The pKD value (negative decadic logarithm of dissociation constant) was calculated using Microsoft Excel.

[3] = pIC50 category of FACS binding, C4-2 cells
[4] = pKD category for PSMA SPR activity assay
[5] = FACS binding, C4-2 cells, competition with 50 nM PSM-0183, category
[6] = SPR, single cycle kinetic, category

T1 sequence (Q04609 whole entry): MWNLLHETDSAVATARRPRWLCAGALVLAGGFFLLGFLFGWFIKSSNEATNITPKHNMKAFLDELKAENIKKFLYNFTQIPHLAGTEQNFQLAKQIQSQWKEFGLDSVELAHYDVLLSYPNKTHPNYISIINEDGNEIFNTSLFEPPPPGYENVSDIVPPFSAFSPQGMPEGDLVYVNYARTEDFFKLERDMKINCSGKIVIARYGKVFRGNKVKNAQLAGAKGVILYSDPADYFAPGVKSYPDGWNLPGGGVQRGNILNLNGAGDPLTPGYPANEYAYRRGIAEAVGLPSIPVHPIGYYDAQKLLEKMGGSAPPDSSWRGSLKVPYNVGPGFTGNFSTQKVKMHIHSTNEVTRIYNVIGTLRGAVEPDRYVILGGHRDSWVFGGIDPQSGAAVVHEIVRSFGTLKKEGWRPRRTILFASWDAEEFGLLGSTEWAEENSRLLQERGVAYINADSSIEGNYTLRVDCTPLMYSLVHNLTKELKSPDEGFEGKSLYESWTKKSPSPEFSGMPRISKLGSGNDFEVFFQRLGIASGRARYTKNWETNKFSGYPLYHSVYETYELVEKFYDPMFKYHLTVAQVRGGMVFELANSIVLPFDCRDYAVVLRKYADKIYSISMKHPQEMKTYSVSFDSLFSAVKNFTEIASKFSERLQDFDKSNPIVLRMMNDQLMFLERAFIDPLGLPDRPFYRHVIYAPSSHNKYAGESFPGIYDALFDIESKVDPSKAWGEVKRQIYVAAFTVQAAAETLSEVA
T2 sequence (Q04609 44-750 limits assumed): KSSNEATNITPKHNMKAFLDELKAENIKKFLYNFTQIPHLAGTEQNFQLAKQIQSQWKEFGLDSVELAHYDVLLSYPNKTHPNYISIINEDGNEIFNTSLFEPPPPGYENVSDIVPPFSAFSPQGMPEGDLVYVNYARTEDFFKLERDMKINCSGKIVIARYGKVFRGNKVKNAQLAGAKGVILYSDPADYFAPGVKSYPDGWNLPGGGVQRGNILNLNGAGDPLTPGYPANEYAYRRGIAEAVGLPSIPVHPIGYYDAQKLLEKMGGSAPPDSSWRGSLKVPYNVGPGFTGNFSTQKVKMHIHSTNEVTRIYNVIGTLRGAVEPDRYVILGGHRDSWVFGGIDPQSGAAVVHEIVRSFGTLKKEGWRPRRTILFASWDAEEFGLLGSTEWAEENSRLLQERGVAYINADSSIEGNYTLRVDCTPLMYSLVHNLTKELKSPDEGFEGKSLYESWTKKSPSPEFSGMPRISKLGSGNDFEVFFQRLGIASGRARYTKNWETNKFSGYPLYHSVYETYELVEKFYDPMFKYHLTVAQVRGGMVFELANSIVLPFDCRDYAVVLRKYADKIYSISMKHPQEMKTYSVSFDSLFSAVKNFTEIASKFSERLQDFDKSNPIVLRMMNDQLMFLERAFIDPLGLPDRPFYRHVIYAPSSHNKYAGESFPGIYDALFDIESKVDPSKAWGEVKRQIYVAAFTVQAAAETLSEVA

Compound | IC50 [1, 3] | Kd [2, 4] | IC50 [1, 5] | Kd [2, 6] | also measured
CCCCNC(=O)N[C@H](C(=O)NC(C)(C)C(=O)N[C@@H](Cc1ccc(Cl)cc1)C(=O)N[C@H]1CSSC[C@@H](C(=O)N[C@H](C(=O)N[C@H](C(=O)N2CCC(CC(=O)N[C@H](CCCCNC(=O)CN3CCN(CC(=O)O)CCN(CC(=O)O)CCN(CC(=O)O)CC3)C(N)=O)CC2)[C@@H](C)O)C(C)(C)C)NC(=O)[C@H](CC(N)=O)NC(=O)C(C)(C)NC(=O)[C@H](CCCNc2ccccn2)NC(=O)[C@H](CCCCN)NC1=O)[C@@H](C)O [PSM-0427, nBuCAyl-Thr-Aib-Pcf-[Cys-Lys-Opy-Aib-Asn-Cys]-Tle-Thr-Cmp-lys(DOTA)-NH2] ({NHBu-CO}-T[Aib][Phe(4-Cl)]CK[Orn](Pyridin(2-yl))[Aib]NC[Tle]T[X1][dK](DOTA)-NH2; disulfide 4-9) | < 200 nM | 12.6 to 126 nM | – | – | –
CNCCCC[C@@H]1NC(=O)[C@@H](NC(=O)[C@H](Cc2ccc(Cl)cc2)NC(=O)C(C)(C)NC(=O)[C@@H](NC(=O)CC2CCN(C(=O)CN3CCN(CC(=O)O)CCN(CC(=O)O)CCN(CC(=O)O)CC3)CC2)[C@@H](C)O)CSSC[C@@H](C(=O)N[C@H](C(=O)N[C@H](C(N)=O)[C@@H](C)O)C(C)(C)C)NC(=O)[C@H](CC(N)=O)NC(=O)C(C)(C)NC(=O)[C@H](CCCNC(=N)N[N+](=O)[O-])NC1=O [PSM-0254, DOTA-Cmp-Thr-Aib-Pcf-[Cys-Lys(Me)-Eew-Aib-Asn-Cys]-Tle-Thr-NH2] ({DOTA}-[X1]T[Aib][Phe(4-Cl)]C[Lys(Me)][Arg(NO2)][Aib]NC[Tle]T-NH2; disulfide 5-10) | – | – | < 200 nM | < 12.6 nM | –
C[C@@H](O)[C@H](NC(=O)[C@@H](NC(=O)[C@@H]1CSSC[C@H](NC(=O)[C@H](Cc2c[nH]c3cc(Cl)ccc23)NC(=O)C(C)(C)NC(=O)[C@@H](NC(=O)CC2CCN(C(=O)CN3CCN(CC(=O)O)CCN(CC(=O)O)CCN(CC(=O)O)CC3)CC2)[C@@H](C)O)C(=O)N[C@@H](CCCCN)C(=O)N[C@@H](CCCNC(N)=O)C(=O)NC(C)(C)C(=O)N[C@@H](CC(N)=O)C(=O)N1)C(C)(C)C)C(N)=O [PSM-0304, DOTA-Cmp-Thr-Aib-6Clw-[Cys-Lys-Cit-Aib-Asn-Cys]-Tle-Thr-NH2] ({DOTA}-[X1]T[Aib][Trp(6-Cl)]CK[Cit][Aib]NC[Tle]T-NH2; disulfide 5-10) | – | – | – | – | IC50 ([1]; FACS binding, PSMA-expressing C4-2 cells, pIC50 category): 200 to 1260 nM; Kd ([2]; PSMA SPR assay, pKD category): < 12.6 nM

The next lines start with results.

IC50 [1, 3] | Kd [2, 4] | IC50 [1, 5] | Kd [2, 6] | Compound | also measured
< 200 nM | < 12.6 nM | – | – | CC(C)(NC(=O)c1ccc(CNC(=O)CN2CCN(CC(=O)O)CCN(CC(=O)O)CCN(CC(=O)O)CC2)cc1)C(=O)N[C@@H](Cc1ccc(Cl)cc1)C(=O)N[C@H]1CSSC[C@@H](C(=O)N[C@H](C(=O)NCCC(N)=O)C(C)(C)C)NC(=O)[C@H](CC(N)=O)NC(=O)C(C)(C)NC(=O)[C@H](CCCNC(=N)N)NC(=O)[C@H](CCCCN)NC1=O [PSM-0432, DOTA-Pamb-Aib-Pcf-[Cys-Lys-Arg-Aib-Asn-Cys]-Tle-Bal-NH2] ({DOTA-4Amb}-[Aib][Phe(4-Cl)]CKR[Aib]NC[Tle][βAla]-NH2; disulfide 3-8) | –
– | – | < 200 nM | < 12.6 nM | CC(=O)N[C@H](C(=O)NC(C)(C)C(=O)N[C@@H](Cc1ccccc1)C(=O)N[C@H]1CSSC[C@@H](C(=O)N[C@H](C(=O)N[C@@H](CCC(=O)O)C(N)=O)C(C)(C)C)NC(=O)[C@H](CC(N)=O)NC(=O)C(C)(C)NC(=O)[C@H](CCCNC(=N)N)NC(=O)[C@H](CCCCN)NC1=O)[C@@H](C)O [PSM-0262, Ac-Thr-Aib-Phe-[Cys-Lys-Arg-Aib-Asn-Cys]-Tle-Glu-NH2] (Ac-T[Aib]FCKR[Aib]NC[Tle]E-NH2; disulfide 4-9) | –
